Assay results from the SangsterLogP compilation.
Starred links: 1 amine or outer side, 2 acyl side, 3 side chain; linkers in the order of their positions; H or OH if unused. Positions of bridges follow the written chain, without caps; N, C: chain ends. Non-standard residues stand in square brackets, D forms with d. Residues, ends and D or L forms follow the SMILES beside them. Chains are numbered I, II in the order given. ξ: configuration not given here. *: point of attachment. Actinocin(9to1) = Cc1c2oc3c(C)ccc(C(=O)[*:1])c3nc-2c(C(=O)[*:2])c(N)c1=O; NMeV = CN[CH](C(=O)O)C(C)C; ξF = NC(Cc1ccccc1)C(=O)O; Cbz = O=C(OCc1ccccc1)*; Sar = CNCC(=O)O

experiment: method code SF, from Hansch, C. & Leo, A. (1987). Log P database [Dataset]. Pomona College Medicinal Chemistry Project.; conditions: not given

Structure (SMILES)	logP
CCOS(=O)(=O)OCC	1.14
CCC(CC)C1=Nc2ccccc2S(=O)(=O)N1	1.88
CCOC(=O)C(=O)OCC	0.56
O=C(CCc1ccccc1)Nc1ccc(Cl)c(Cl)c1	4.85
CC(=O)c1ccc2ncccc2c1	1.58
Clc1ccc2ncccc2c1	2.73
NS(=O)(=O)NCCc1ccccc1	0.81
CCOC(=O)/C(=C/c1ccc(OC)c(OC)c1)C(C)=O	2.02
Nc1ccc(I)cc1	2.34
CNC(=O)Oc1cc(C)c(Cl)cc1C	2.95
O=NN(CCF)C(=O)NCCCl	0.95
CC(=O)NC(=O)NC(C)=O	-0.68
O=S(=O)(N=[N+]([O-])c1ccccc1)c1ccccc1	2.33
Nc1ccccc1Br	2.11
N#Cc1ccc(OC(=O)CNC(=O)c2ccccc2)cc1	2.1
CCOP(=O)(OCC)SCSCC	2.07
ClC(Cl)=C(Cl)Cl	3.4
C[C@@H]1C[C@H]2[C@@H]3C[C@H](F)C4=CC(=O)C(Cl)=C[C@]4(C)[C@@]3(F)[C@@H](O)C[C@]2(C)[C@@]1(O)C(=O)CO	2.58
CC(=O)C(Cc1ccccc1)C(C)=O	1.89
OCCCCCl	0.85
Cc1ccc2c(ccc[n+]2[O-])c1	0.95
CC(C)[C@H](NC(=O)C(Cc1ccccc1)NC(=O)OCc1ccccc1)C(=O)O (some centres not stated) (Cbz-[ξF]-Val-OH)	2.88
COc1ccc(NC(C)=O)cc1	1.1
O=c1c2ccccc2ncn1O	-0.45
CCOP(=O)(OCC)SCS(=O)CC (configuration not stated)	1.69

Structure (SMILES)	logP
CC(=S)Oc1ccccc1	1.91
CCOCCOC(=O)C(C#N)=C(CC)NCc1ccc([N+](=O)[O-])cc1	2.64
COC1OC(=O)c2ccccc21 (configuration not stated)	1
NC(=S)c1ccccc1N	0.99
CCN(CC)C(C)CN1c2ccccc2Sc2ccccc21 (configuration not stated)	4.77
CCCC(=O)OCC(O)CO (configuration not stated)	-0.17
CC(C)c1ccccc1O	2.88
Cc1cc(C)ncn1	0.62
CCOP(=O)(OCC)Oc1ccc(SC)cc1C	3.21
NC(=S)NN=Cc1ccccc1	1.86
O=CN(Cc1ccccc1)c1ccccc1	2.62
O=[N+]([O-])c1ccc2[nH]c(CCc3nc4cc([N+](=O)[O-])ccc4[nH]3)nc2c1	1.29
c1ccc(Sc2ccccc2)cc1	4.45
CCCCCCCCN(CCCCCCCC)N=Cc1c2c(O)c3c(O)c(C)c4c(c3c1O)C(=O)C(C)(O/C=C\C(OC)C(C)C(OC(C)=O)C(C)C(O)C(C)C(O)C(C)/C=C\C=C(\C)C(=O)N2)O4 (configuration not stated)	3.6
OCC(F)(F)C(F)(F)C(F)(F)F	1.81
C=CC=O	-0.01
COc1cccc(C=C(C(C)=O)C(C)=O)c1	1.79
CCCCCc1cn[nH]c1	2.96
Cc1ccccc1C#N	2.21
CCOP(=S)(OCC)Oc1ccc(SC)cc1C	4.16
c1ccc2nc3ccccc3nc2c1	2.84
CNC(=O)Oc1cc(Cl)ccc1Cl	2.44
CNC(=O)C=C(C)OP(=O)(OC)OC	-0.2
CCC(C)c1ccccc1O (configuration not stated)	3.27
CC(=O)Nc1cccc(C(C)=O)c1	1.1

Structure (SMILES)	logP
CC(C)(O)C(F)(F)F	1.04
c1cn[nH]c1	0.13
CC(C)Oc1cn[nH]c1	1.13
N#C/C(=C\c1ccccc1)C(N)=O	1.5
COc1ccc(-c2ncc[nH]2)c(OC)c1	1.72
OC(c1nc2ccccc2[nH]1)C(O)c1nc2ccccc2[nH]1 (configuration not stated)	1.14
O=Cc1ccc2c(c1)OCO2	1.05
CN(C)C(=O)/C=C/c1ccccc1	1.73
O=c1cn[nH]c2ccccc12	0.82
CC(=O)c1ccccc1OC(=O)N(C)C	0.93
CC(=O)Nc1ccc2oc(C)c(C)c(=O)c2c1	1.79
OC(c1ccccc1)(C(F)(F)F)C(F)(F)F	3.41
Cc1ccc(S(=O)(=O)Oc2ccccc2C(=O)N(C)C)cc1	2.01
NC(=O)c1ncn2c(=O)n(CCCl)nnc12	-0.47
CC[C@H]1OC(=O)[C@H](C)[C@@H](O[C@H]2C[C@@](C)(OC)[C@@H](O)[C@H](C)O2)[C@H](C)[C@@H](O[C@@H]2O[C@H](C)C[C@H](NC)[C@H]2O)[C@](C)(O)C[C@@H](C)C(=O)[C@H](C)[C@@H](O)[C@]1(C)O	2.21
O=[N+]([O-])/C=C/c1ccc(Cl)cc1Cl	3.26
COP(=O)(NCC(C)C)Oc1cc(Cl)c(Cl)cc1Cl (configuration not stated)	3.86
CCOP(=O)(OCC)Oc1ccc(SC)cc1	2.79
CN(C(=O)COc1ccccc1)c1ccccc1	2.25
O=NN(CCCl)C(=O)NC1CCC(O)CC1 (configuration not stated)	1.11
N#CN=[N+]([O-])c1cccc([N+](=O)[O-])c1	1.45
COc1cc(C=O)ccc1OCCOC(=O)c1cccc(Cl)c1	3.67
CCCC=O	0.88
CC[N+](=O)[O-]	0.18
c1ccc2c(c1)OCO2	2.08

Structure (SMILES)	logP
O=S1(=O)NC(C(Cl)Cl)=Nc2cc(Cl)ccc21	1.81
CC(=O)Nc1cc2c(cc1Cl)S(=O)(=O)NC(C)=N2	0.53
O=C1C=CC(=O)c2c(O)cccc21	1.92
O=C(Nc1ccccc1)c1ccc(C(=O)Nc2ccccc2)cc1	3.72
NS(=O)(=O)c1ccc(C(=O)c2ccncc2)cc1	0.56
Oc1ccccc1C(F)(F)F	2.73
C1OCOCO1	-0.43
CCN(CC)c1ccc(NC(=O)N(C)OC)cc1	2.33
COc1cc(C=NOC(=O)c2ccccc2OC)ccc1OCCO	2.84
CC(=O)Nc1ccc(OC(C)=O)cc1	0.8
O=S1(=O)NC(Cc2ccccc2)=Nc2ccccc21	1.89
COC(=O)Cc1cccs1	1.51
O=c1cc(-c2ccc(O)cc2)oc2ccccc12	3.2
Ic1cn[nH]c1	1.7
CCOS(=O)(=O)c1ccc(C)cc1	1.81
Fc1c(F)c(F)c(F)c(F)c1F	2.22
CCCCC1OC(=O)c2cc(Br)ccc21 (configuration not stated)	4.24
CN(C)c1cccc2ccccc12	3.46
CN(C(=O)c1ccccc1)c1ccccc1	2.36
NC(=O)c1cccc(N)c1	-0.33
CSCCC(=O)N(C)c1ccc(S(=O)(=O)N(C)C)cc1	0.99
Nc1cc(C(F)(F)F)cc(C(F)(F)F)c1	3.57
CN(Cc1ccc(C#N)cc1)/N=N/c1ccc(C(=O)O)cc1	3.6
[N-]=[N+]=Nc1ccccc1	2.59
CCN(CC)c1ccc(CO)cc1	2.29

Structure (SMILES)	logP
OC(c1ccccc1)C1CCCCN1 (configuration not stated)	1.28
COc1ccc2[nH]c(CC(O)c3nc4cc(OC)ccc4[nH]3)nc2c1 (configuration not stated)	0.76
CNC(=O)CSP(=S)(OC)OC	0.8
NC(=O)N=[N+]([O-])c1ccccc1	0.58
CCOC(=O)CCc1ccccc1	2.73
Oc1ccnc2cc(C(F)(F)F)ccc12	2.05
FC(F)(F)C(F)(F)c1ccccc1	3.36
COC(=O)c1ccccc1Cl	2.38
c1ccc2c(c1)nnc1ccccc12	2.71
CC(=O)Nc1cccc(I)c1	2.64
O=C(Nc1ccccc1)NC(CO)(CO)CO	0.43
Nc1cccc2c1C(=O)c1ccccc1C2=O	2.87
O=S1(=O)N=C(C2CCCC2)Nc2ccccc21	1.83
COC(=O)C(C)Oc1ccc(Oc2ccc(Cl)cc2Cl)cc1 (configuration not stated)	4.8
CC(=O)CCN(C)c1ccc(S(=O)(=O)N(C)C)cc1	0.23
CC=CC(=O)Nc1ccc(Cl)c(Cl)c1	3.63
CCCCC(=Cc1ccccc1)C(=O)NC(C)CC (configuration not stated)	4.07
O=[N+]([O-])c1ccc(N2CCCCC2)cc1	3.26
COc1ccc(C(C)=O)c(N)c1	1.76
COc1ccc2[nH]c(CCCCc3nc4cc(OC)ccc4[nH]3)nc2c1	1.42
C(=N\N1CCCCC1)/c1ccccc1	3.04
CP(C)c1ccccc1	2.57
COc1ccc(C(N)=O)cc1/N=N/N(C)C	0.44

same assay, conditions: pH 2.0

Structure (SMILES)	logD
O=C(O)c1cc2ccccc2[nH]1	2.31

same assay, conditions: pH 3.0

Structure (SMILES)	logD
CC(=O)OCC1=C(C(=O)O)N2C(=O)[C@@H](NC(=O)CBr)[C@H]2SC1	-0.7
CC(=O)OCC1=C(C(=O)O)N2C(=O)C(NC(=O)CSc3cc(Cl)ccc3Cl)C2SC1 (configuration not stated)	1.66

same assay, conditions: pH 4.2

Structure (SMILES)	logD
NC(=O)c1nc[nH]c1N=NN(CCO)Cc1ccccc1	0.99

same assay, conditions: pH 6.6

Structure (SMILES)	logD
CON=C(C(=O)NC1C(=O)N2C(C(=O)OCOC(=O)C(C)(C)C)=C(CSc3nnnn3C)CSC12)c1csc(N)n1 (configuration not stated)	1.74

same assay, conditions: pH 7.0

Structure (SMILES)	logD
COC(=O)c1ccc(OC)cc1	2.27
CCCCOC(=O)c1cccnc1	2.27
COc1ccccc1CO	1.13
CS(=O)(=O)c1cccc([N+](=O)[O-])c1	0.5
CC(=O)c1cccc(F)c1	1.77

same assay, conditions: pH 7.4

Structure (SMILES)	logD
O=C(CCCN1CCC(n2c(=O)[nH]c3ccccc32)CC1)c1ccc(F)cc1	3.91
Cc1c2oc3c(C)ccc(C(=O)NC4C(=O)NC(C(C)C)C(=O)N5CCCC5C(=O)N(C)CC(=O)N(C)C(C(C)C)C(=O)OC4C)c3nc-2c(C(=O)NC2C(=O)NC(C(C)C)C(=O)N3CCCC3C(=O)N(C)CC(=O)N(C)C(C(C)C)C(=O)OC2C)c(N)c1=O (configuration not stated) (I: TVP[Sar][NMeV] / II: TVP[Sar][NMeV]; ester I:1-I:C, II:1-II:C; linker I:N-II:N via Actinocin(9to1); configuration not given here)	3.21
N=c1ccccn1O	-0.87
Nc1nc(S)c2ncn(C3CC(O)C(CO)O3)c2n1 (configuration not stated)	-0.56
O=c1cn[nH]c(=O)[nH]1	-1.37
CC12CCC(=O)C=C1CCC1C2CCC2(C)C1CCC21CCC(=O)O1 (configuration not stated)	2.75

same assay, conditions: pH 9.0

Structure (SMILES)	logD
NN1CCCCC1	-0.28

same assay, conditions: pH 11.0

Structure (SMILES)	logD
CC(C)NCc1cccnc1	0.82
CCN(CC)Cc1cccnc1	1.01

same assay, conditions: pH 13.0

Structure (SMILES)	logD
CC1(C)N=C(N)N=C(N)N1c1ccc(N)cc1	-0.59
CS(=O)(=O)Oc1ccccc1Cc1cnc(N)nc1N	0.71
Nc1nc(N)c2ncn(COCCO)c2n1	-1.06
CCCCN(CCCC)CC(O)c1ccccc1 (configuration not stated)	3.16
CC(=O)c1ccc(N2C(N)=NC(N)=NC2(C)C)cc1	-0.04
